Measured values from the NIST ThermoML archive (doi:10.1021/je500079y).
± gives the expanded uncertainty stated by the source.

Conditions: 101.33 kPa, Liquid, Vibrating tube method

CCOS(=O)(=O)[O-].CCn1cc[n+](C)c1 [1-ethyl-3-methylimidazolium ethyl sulfate]
Conditions	mass density [kg/m3]
278.15 K	1250.01 ± 0.13
283.15 K	1246.61 ± 0.13
288.15 K	1243.14 ± 0.13
293.15 K	1239.68 ± 0.13
298.15 K	1236.24 ± 0.13
303.15 K	1232.82 ± 0.13
308.15 K	1229.42 ± 0.13
313.15 K	1226.03 ± 0.13
318.15 K	1222.66 ± 0.12
323.15 K	1219.3 ± 0.1
328.15 K	1215.96 ± 0.12
333.15 K	1212.63 ± 0.12
338.15 K	1209.31 ± 0.12
343.15 K	1206.01 ± 0.12
